Source: patent US9422267B2, “Fused pyrimidine compounds and use thereof” (Medivation Technologies, Inc., priority 2012, dated 2016)
Read-outs that look alike come from different tables or passages of the source. Blank lines part the entries; values can stand above or below the molecule they belong to.

What was measured:
[1] = test system: Akt phosphorylation induced by IGF-1R in HT-29 cells; assay: Western blot analysis of Akt phosphorylation induced by IGF-1R; assay type: cell-based, Human; conditions: then IGF-1 10 ng/mL 10 min, HT-29
Method: Inhibition of Akt phosphorylation induced by IGF-1R was studied by western blot analysis. Human colon carcinoma HT-29 cells were seeded at a density of 8×10^4 cells/well in a 24-well plate and grown in DME/F12 media containing 10% FBS for 24 h. The cells were then depleted of serum by incubation in DME/F12 media lacking FBS for 24 h. […] […] Lysed cells were centrifuged at 13,000 rpm for 15 min and the protein concentration soluble fraction (supernatant) of each sample was determined using a BCA protein assay (Pierce).

[2] = target: KDR (Homo sapiens, UniProt P35968); assay: Caliper kinase profiling: KDR; assay type: biochemical; conditions: read-out: Average % Inh @ 1 μM
Method: (§7) The compound was tested at concentrations of 1.0×10^−8 and 1.0×10^−9 M in the RapidKinase192™ panel in duplicate. […] The screening was performed using the Caliper EZReader2, a 4-sipper LabChip, and ProfilerPro Kinase Selectivity Assay Kits 1 and 2. The assay measures the conversion of a fluorescent peptide substrate to a phosphorylated product. Briefly, the reaction mixture was introduced through a capillary sipper onto the microfluidic chip, where the substrate and product were electrophoretically separated and detected by laser-induced fluorescence. The time-dependent fluorescence signal indicates the extent of the reaction.

[3] = test system: HT-29; assay: Cell Titer-Glo cell viability: HT-29; assay type: cell-based; conditions: Homo sapiens, HT-29, 72 h
Method: (§1) This assay quantitates the ATP present in order to determine the number of viable cells in culture. Briefly, the compounds were incubated with the cells for 72 h, followed by cell lysis. The resulting luminescent signal is proportional to the amount of ATP present and, therefore, directly proportional to the number of cells present in culture.
(§2) Compound nos. […] These cell lines are derived from human lung carcinoma, colon adenocarcinoma, colon adenocarcinoma, colon carcinoma, acute promyelocytic leukemia, colon adenocarcinoma, colon adenocarcinoma (from metastatic site lymph node), respectively.
(§3) Compounds 2b, 5, 6b and 10a were tested along with derivatives in viability assays as described above by Caliper LifeSciences Systems (Hanover, Md.), in A549, HCT-15, HCT-116, MCF-7, MDA-MB-231, OVCAR3, T47D, COLO205, HT-29, BT-20, HCC1187, HL-60, MDA-MB-175, SW-620, and UACC812 cells.

[4] = test system: HL-60; assay: Cell Titer-Glo cell viability: HL-60; assay type: cell-based, human; conditions: Homo sapiens, HL-60, 72 h
Method: as §1, §2, §3

[5] = test system: A549; assay: Cell Titer-Glo cell viability: A549; assay type: cell-based; conditions: Homo sapiens, A549, 72 h, A549, non-small lung carcinoma
Method: as §1, §2, §3

[6] = test system: COLO 205; assay: Cell Titer-Glo cell viability: COLO 205; assay type: cell-based; conditions: Homo sapiens, COLO 205, 72 h
Method: as §1, §2, §3

[7] = test system: HCT-15; assay: Cell Titer-Glo cell viability: HCT-15; assay type: cell-based; conditions: Homo sapiens, HCT-15, 72 h, HCT15, colon carcinoma
Method: as §1, §2, §3

[8] = test system: HCT-116; assay: Cell Titer-Glo cell viability: HCT-116; assay type: cell-based; conditions: Homo sapiens, HCT116, colon carcinoma
Method: as §1, §2, §3

[9] = test system: SW-620; assay: Cell Titer-Glo cell viability: SW-620; assay type: cell-based; conditions: Homo sapiens, SW-620, 72 h, SW-620, metastatic colorectal cancer
Method: as §1, §2, §3

[10] = target: T1, IGF1R (Homo sapiens, UniProt P08069); assay: Caliper kinase profiling: IGF1R; assay type: biochemical; design: purchased Caliper LifeSciences (ProfilerPro Kinase Selectivity Assay Kits); conditions: 1 μM, read-out: Average % Inh @ 1 μM
T1 sequence (P08069 31-1367): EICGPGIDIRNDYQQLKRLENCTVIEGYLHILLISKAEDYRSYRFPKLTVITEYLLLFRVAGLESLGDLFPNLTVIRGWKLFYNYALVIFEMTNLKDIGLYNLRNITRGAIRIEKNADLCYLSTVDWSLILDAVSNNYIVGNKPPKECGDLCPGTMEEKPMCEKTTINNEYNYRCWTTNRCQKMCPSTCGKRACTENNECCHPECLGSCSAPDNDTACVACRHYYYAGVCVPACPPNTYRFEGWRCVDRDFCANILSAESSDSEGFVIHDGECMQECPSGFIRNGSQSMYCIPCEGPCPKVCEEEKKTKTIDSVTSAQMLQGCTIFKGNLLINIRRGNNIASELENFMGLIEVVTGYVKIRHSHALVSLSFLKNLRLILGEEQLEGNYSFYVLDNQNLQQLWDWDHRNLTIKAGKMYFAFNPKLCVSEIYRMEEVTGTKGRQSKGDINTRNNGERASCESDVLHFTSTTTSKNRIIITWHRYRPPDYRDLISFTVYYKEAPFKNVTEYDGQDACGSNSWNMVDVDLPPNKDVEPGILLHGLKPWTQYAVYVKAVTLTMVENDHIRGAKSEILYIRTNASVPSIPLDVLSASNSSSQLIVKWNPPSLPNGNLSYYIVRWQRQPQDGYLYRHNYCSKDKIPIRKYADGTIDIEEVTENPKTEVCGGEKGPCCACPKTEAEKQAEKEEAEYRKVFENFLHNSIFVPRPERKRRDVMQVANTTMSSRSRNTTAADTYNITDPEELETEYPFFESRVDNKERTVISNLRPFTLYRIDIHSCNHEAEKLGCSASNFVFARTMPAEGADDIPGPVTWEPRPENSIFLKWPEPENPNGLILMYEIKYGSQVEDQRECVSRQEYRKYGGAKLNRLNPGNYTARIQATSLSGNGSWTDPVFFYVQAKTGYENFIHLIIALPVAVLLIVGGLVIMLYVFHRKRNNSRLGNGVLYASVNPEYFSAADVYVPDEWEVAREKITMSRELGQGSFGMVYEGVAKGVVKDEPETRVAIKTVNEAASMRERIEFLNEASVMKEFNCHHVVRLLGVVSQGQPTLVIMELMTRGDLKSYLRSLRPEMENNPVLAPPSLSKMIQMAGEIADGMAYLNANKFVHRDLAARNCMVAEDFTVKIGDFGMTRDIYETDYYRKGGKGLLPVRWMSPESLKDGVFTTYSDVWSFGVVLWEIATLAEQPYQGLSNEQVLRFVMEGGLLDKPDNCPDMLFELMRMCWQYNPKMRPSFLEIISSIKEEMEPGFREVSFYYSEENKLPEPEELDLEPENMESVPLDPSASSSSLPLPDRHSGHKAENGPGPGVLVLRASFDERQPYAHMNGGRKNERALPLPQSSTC
Method: as §7

[11] = target: T2, IR (Homo sapiens, UniProt P06213); assay: In vitro IR enzymatic assay (ADP-Glo kinase assay); assay type: biochemical; conditions: activated IR; for inhibition at 0.03 µM: 30 nM
T2 construct: purchased Millipore 14-803
T2 sequence (P06213 28-1382): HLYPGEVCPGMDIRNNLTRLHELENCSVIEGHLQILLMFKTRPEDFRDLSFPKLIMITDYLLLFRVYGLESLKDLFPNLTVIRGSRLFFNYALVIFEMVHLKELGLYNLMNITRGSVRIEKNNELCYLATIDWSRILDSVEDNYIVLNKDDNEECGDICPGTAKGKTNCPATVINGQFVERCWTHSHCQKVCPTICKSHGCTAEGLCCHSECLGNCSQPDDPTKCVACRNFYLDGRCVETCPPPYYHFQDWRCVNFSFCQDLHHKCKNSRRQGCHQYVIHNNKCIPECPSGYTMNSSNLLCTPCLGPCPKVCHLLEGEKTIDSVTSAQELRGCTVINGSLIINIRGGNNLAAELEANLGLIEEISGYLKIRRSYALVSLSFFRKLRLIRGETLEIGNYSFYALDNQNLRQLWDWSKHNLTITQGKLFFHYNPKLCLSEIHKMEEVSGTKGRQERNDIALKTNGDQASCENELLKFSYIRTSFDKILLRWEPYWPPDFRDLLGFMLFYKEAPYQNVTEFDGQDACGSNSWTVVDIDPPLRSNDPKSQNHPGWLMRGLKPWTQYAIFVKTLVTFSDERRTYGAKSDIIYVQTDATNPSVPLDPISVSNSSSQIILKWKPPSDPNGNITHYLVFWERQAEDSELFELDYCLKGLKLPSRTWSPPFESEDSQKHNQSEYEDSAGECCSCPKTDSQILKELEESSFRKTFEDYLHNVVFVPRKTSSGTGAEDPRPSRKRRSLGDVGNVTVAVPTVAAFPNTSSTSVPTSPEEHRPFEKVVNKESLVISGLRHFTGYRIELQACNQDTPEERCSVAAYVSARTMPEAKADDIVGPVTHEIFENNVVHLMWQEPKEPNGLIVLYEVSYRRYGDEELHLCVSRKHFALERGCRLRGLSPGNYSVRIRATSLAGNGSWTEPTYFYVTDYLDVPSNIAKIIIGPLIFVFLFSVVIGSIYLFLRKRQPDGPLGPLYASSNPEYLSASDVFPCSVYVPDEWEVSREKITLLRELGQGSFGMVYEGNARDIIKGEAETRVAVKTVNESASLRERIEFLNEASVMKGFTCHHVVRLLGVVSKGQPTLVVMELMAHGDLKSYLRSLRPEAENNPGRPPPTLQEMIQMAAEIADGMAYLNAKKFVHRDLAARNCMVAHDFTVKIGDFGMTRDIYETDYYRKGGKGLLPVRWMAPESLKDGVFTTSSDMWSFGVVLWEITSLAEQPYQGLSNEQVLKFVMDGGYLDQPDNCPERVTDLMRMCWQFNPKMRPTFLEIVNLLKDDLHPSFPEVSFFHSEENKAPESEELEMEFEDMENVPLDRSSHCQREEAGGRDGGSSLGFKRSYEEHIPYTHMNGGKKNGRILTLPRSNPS
Method: (§4) IC50 values of the compounds of the invention against IGF-1R and IR were measured in vitro using an ADP-Glo kinase assay Kit (Promega). […] Kinase reactions in both assays were conducted at 30° C. for 20 min with increasing concentrations of compounds of the invention.

[12] = target: T1, IGF1R; assay: In vitro IGF-1R enzymatic assay (ADP-Glo kinase assay); assay type: biochemical; design: purchased Millipore 14-802; conditions: activated IGF-1R; for inhibition at 0.03 µM: 30 nM
Method: as §4

[13] = target: T3, AXL (Homo sapiens, UniProt P30530); assay: Caliper kinase profiling: AXL; conditions: 0.01 μM
T3 sequence (P30530 26-894): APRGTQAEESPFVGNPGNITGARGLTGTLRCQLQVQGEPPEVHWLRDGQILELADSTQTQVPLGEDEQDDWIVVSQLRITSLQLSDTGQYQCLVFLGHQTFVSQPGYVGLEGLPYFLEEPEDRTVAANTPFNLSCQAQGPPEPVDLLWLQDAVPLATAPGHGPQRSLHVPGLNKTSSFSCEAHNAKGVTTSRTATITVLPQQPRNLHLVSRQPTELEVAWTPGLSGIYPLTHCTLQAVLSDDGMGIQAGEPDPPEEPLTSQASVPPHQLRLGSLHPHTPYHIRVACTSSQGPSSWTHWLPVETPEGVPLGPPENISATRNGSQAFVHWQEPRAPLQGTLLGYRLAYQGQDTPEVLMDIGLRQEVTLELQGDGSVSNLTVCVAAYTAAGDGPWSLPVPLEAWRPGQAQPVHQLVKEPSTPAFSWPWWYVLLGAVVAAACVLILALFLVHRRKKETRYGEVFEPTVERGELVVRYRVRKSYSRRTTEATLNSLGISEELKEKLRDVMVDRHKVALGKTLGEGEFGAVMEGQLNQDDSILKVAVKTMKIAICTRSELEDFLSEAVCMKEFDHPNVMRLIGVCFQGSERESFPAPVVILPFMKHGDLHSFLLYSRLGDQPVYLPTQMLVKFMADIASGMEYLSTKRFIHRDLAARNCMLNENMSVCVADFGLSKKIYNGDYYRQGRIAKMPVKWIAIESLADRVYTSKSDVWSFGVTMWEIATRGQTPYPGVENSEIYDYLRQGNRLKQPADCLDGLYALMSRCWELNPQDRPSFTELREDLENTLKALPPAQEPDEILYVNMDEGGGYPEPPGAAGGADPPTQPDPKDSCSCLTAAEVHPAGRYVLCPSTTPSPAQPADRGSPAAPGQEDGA
Method: as §7
(§8) The kinases tested were AurA, AurB, AurC, AXL, FAK2, IGF1R, InsR, Mer, MET, TrkB and TrkC.
(§9) The assays were conducted using the Caliper LabChip 3000 and a 12-sipper LabChip as described above.

[14] = target: FAK2(PTK2b) (Homo sapiens, UniProt Q14289); assay: Caliper kinase assay: FAK2(PTK2b); conditions: 0.01 μM
FAK2(PTK2b), sequence (Q14289 whole entry): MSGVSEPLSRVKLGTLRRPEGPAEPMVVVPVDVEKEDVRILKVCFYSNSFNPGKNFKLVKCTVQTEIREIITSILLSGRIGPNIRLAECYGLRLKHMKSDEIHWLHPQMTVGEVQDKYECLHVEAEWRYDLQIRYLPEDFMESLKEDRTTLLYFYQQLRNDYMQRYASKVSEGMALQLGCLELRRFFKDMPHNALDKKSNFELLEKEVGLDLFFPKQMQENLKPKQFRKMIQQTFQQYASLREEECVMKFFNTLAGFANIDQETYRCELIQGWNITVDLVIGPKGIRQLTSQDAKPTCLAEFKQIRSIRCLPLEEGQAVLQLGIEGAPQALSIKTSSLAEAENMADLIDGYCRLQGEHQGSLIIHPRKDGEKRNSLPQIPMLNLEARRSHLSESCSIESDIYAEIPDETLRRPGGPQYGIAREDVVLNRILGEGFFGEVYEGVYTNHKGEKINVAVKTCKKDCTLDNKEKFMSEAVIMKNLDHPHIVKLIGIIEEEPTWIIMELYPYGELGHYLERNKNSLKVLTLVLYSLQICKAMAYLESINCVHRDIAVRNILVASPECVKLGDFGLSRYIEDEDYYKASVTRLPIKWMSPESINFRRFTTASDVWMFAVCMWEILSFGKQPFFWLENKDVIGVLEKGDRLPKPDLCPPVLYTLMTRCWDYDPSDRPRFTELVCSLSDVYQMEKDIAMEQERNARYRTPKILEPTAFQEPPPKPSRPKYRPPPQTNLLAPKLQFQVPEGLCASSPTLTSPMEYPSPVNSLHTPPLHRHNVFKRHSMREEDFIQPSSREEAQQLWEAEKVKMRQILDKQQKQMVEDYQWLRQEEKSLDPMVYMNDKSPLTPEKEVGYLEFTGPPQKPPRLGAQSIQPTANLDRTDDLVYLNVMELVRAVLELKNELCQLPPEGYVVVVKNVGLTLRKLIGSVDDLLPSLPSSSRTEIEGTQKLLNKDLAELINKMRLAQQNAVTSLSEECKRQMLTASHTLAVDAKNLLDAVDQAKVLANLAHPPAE
Method: as §7, §8, §9

[15] = target: NTRK2 (TRKB) (Homo sapiens, UniProt Q16620); assay: Caliper kinase profiling: NTRK2 (TRKB); conditions: 0.01 μM
NTRK2 (TRKB), sequence (Q16620 32-822): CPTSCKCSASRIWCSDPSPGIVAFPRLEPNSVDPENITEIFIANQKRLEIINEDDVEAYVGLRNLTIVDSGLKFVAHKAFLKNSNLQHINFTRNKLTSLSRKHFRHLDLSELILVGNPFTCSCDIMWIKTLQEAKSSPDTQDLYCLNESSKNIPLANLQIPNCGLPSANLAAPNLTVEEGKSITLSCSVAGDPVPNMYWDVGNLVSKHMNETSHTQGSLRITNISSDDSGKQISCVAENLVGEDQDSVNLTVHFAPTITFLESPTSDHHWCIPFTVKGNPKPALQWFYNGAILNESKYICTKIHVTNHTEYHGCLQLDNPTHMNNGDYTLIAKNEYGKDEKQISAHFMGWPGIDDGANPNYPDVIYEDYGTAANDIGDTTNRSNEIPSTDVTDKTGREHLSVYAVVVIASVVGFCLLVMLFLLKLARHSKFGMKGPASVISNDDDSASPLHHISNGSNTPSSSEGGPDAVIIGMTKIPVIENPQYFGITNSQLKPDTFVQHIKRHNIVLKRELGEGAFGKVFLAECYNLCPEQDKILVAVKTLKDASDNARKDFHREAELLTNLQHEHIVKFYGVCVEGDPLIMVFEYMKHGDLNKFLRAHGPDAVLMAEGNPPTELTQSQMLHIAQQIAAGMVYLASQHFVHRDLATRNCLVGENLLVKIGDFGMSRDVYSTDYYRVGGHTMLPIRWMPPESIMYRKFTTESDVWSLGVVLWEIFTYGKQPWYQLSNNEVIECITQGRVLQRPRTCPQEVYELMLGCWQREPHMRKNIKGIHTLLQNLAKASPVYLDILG
Method: as §7, §8, §9

[16] = target: TRKC (NTRK3) (Homo sapiens, UniProt Q16288); assay: Caliper kinase profiling: TRKC (NTRK3); conditions: 0.01 μM
Method: as §7, §8, §9

[17] = test system: BT-20; assay: Cell Titer-Glo cell viability: BT-20; assay type: cell-based; conditions: Homo sapiens; BT-20, breast cancer; 72 h incubation, Cell Titer-Glo
Method: (§5) Compound nos. […] This panel of cell lines includes an ER− breast carcinoma, primary breast ductal carcinoma, prostate adenocarcinoma, mammary adenocarcinoma, mammary ductal carcinoma, mammary ductal carcinoma, ovary adenocarcinoma, ER+ breast carcinoma, ER-HER2+ mammary ductal carcinoma and an ER+ mammary ductal carcinoma, respectively.
as §1, §3

[18] = test system: LNCaP; assay: Cell Titer-Glo cell viability: LNCaP; assay type: cell-based; conditions: Homo sapiens, Prostate cancer, 72 h incubation, Cell Titer-Glo
Method: as §5, §1

[19] = test system: MCF-7; assay: Cell Titer-Glo cell viability: MCF-7; assay type: cell-based; conditions: Homo sapiens; MCF7, breast cancer; 72 h incubation, Cell Titer-Glo
Method: as §5, §1, §3

[20] = test system: T47D; assay: Cell Titer-Glo cell viability: T47D; assay type: cell-based; conditions: Homo sapiens, breast cancer, 72 h incubation, Cell Titer-Glo
Method: as §5, §1, §3

[21] = test system: MDA MB 175; assay: Cell Titer-Glo cell viability: MDA MB 175; assay type: cell-based; conditions: MDA-MB-175, breast cancer; 72 h incubation, Cell Titer-Glo
Method: as §5, §1, §3
(§6) The inhibitory effects of Compound 8a were tested in two cell lines.

[22] = test system: MDA MB 231; assay: Cell Titer-Glo cell viability: MDA MB 231; assay type: cell-based; conditions: Homo sapiens, MDAMB231, breast cancer, 72 h incubation, Cell Titer-Glo
Method: as §5, §1, §3

[23] = test system: OVCAR-3; assay: Cell Titer-Glo cell viability: OVCAR-3; assay type: cell-based; conditions: Homo sapiens, OVCAR3, ovarian cancer, 72 h incubation, Cell Titer-Glo
Method: as §5, §1, §3

[24] = test system: UACC 812; assay: Cell Titer-Glo cell viability: UACC 812; assay type: cell-based; conditions: Homo sapiens; UACC 812, breast cancer; 72 h incubation, Cell Titer-Glo
Method: as §5, §1, §3, §6

[25] = test system: HCC 1187; assay: Cell Titer-Glo cell viability: HCC 1187; assay type: cell-based; conditions: Homo sapiens, HCC1187; HCC-1187, breast cancer; 72 h incubation, Cell Titer-Glo
Method: as §5, §1, §3

[26] = 72 h incubation, Cell Titer-Glo
[27] = average, read-out: % Inh @ 30 nM Avg
[28] = replicate N1, read-out: % Inh @ 30 nM (N1)
[29] = replicate N2, read-out: % Inh @ 30 nM (N2)

inhibition at 1 µM [2]: 40 to 59% | IC50 ([3]; HT29, colon adenocarcinoma (second entry of the table), 72 h): < 10 µM | IC50 ([3]; HT-29, colon cancer, 72 h): < 100 µM | IC50 ([4]; HL60, promyelocytic leukemia (second entry of the table), 72 h): < 10 µM | IC50 ([4]; HL-60, promyelocytic leukemia, 72 h): < 100 µM | IC50 ([5]; 72 h): 10 µM | IC50 ([6]; COLO-205, colon adenocarcinoma, 72 h): 1000 nM | IC50 ([7]; 72 h): < 100 µM | IC50 ([8]; 72 h): < 100 µM | IC50 ([9]; 72 h): < 100 µM | inhibition at 1 µM [10]: > 60%
Structure (SMILES): CC1(O)CC(c2nc(-c3ccc4ccc(-c5ccccc5)nc4c3)c3c(N)nccn23)C1 (stereo not shown) [OSI-906, 3-[8-Amino-1-(2-phenyl-7-quinolyl)imidazo[1,5-a]pyrazin-3-yl]-1-methyl-cyclobutanol, reference compound]
phosphorylated AKT levels normalized to actin levels (pAKT/actin) ([1]; 1 nM compound 2 h): 0.85 | phosphorylated AKT levels normalized to actin levels (pAKT/actin) ([1]; 100 nM compound 2 h): 0.40

IC50 ([11]; read-out: IC50): 7.2 nM | IC50 ([12]; read-out: IC50): 5.8 nM | inhibition of AXL in panel of 11 kinases [13]: strongly inhibited | inhibition of FAK2 in panel of 11 kinases [14]: strongly inhibited | inhibition of TrkB in panel of 11 kinases [15]: strongly inhibited | inhibition of TrkC in panel of 11 kinases [16]: strongly inhibited
Structure (SMILES): O=C(Nc1ccc(F)nc1)C1CC(O)CN1c1nc2c(c(Nc3cc(C4CC4)[nH]n3)n1)CCC2 (single isomer, unassigned) [Compound 10d, 1-(4-(5-cyclopropyl-1H-pyrazol-3-ylamino)-6,7-dihydro-5H-cyclopenta[d]pyrimidin-2-yl)-N-(6-fluoropyridin-3-yl)-4-hydroxypyrrolidine-2-carboxamide]

IC50 ([3]; HT-29, colon adenocarcinoma, 72 h incubation, Cell Titer-Glo): < 0.1 µM | IC50 ([4]; HL60, promyelocytic leukemia, 72 h incubation, Cell Titer-Glo): 0.1 µM | IC50 [5, 26]: < 10 µM | IC50 ([6]; COLO205, colon cancer, 72 h incubation, Cell Titer-Glo): < 100 nM | IC50 [7, 26]: < 100 µM | IC50 [8, 26]: 10 µM | IC50 [9, 26]: < 10 µM | IC50 [17]: < 10 µM | IC50 [18]: < 1000 nM | IC50 [19]: < 1000 nM | IC50 [20]: 1000 nM | IC50 [23]: 1000 nM | IC50 [25]: < 1000 nM | inhibition of AXL in panel of 11 kinases [13]: strongly inhibited | inhibition of FAK2 in panel of 11 kinases [14]: strongly inhibited | inhibition of TrkB in panel of 11 kinases [15]: strongly inhibited | inhibition of TrkC in panel of 11 kinases [16]: strongly inhibited
Structure (SMILES): O=C(Nc1ccc(F)nc1)C1CC(O)CN1c1nc2c(c(Nc3cc(C4CC4)[nH]n3)n1)CCC2 (single isomer, unassigned) [Compound 10a]
phosphorylated AKT levels normalized to actin levels (pAKT/actin) ([1]; 1 nM compound 2 h): 0.54 | phosphorylated AKT levels normalized to actin levels (pAKT/actin) ([1]; 10 nM compound 2 h): 0.00 | phosphorylated AKT levels normalized to actin levels (pAKT/actin) ([1]; 100 nM compound 2 h): 0.01 | IC50 [21]: < 10 µM | IC50 [22]: 10 µM | IC50 [24]: < 10 µM

inhibition at 0.03 µM [11, 27]: 6% | inhibition at 0.03 µM [11, 28]: 3% | inhibition at 0.03 µM [11, 29]: 9% | inhibition at 0.03 µM [12, 27]: 16% | inhibition at 0.03 µM [12, 28]: 14% | inhibition at 0.03 µM [12, 29]: 17%
Structure (SMILES): O=C(Nc1ccc(F)nc1)C1CCCCN1c1nc2c(c(Nc3cc(C4CC4)[nH]n3)n1)CCC2 (single isomer, unassigned) [Compound 9b, 1-(4-(5-cyclopropyl-1H-pyrazol-3-ylamino)-6,7-dihydro-5H-cyclopenta[d]pyrimidin-2-yl)-N-(6-fluoropyridin-3-yl)piperidine-2-carboxamide]
phosphorylated AKT levels normalized to actin levels (pAKT/actin) ([1]; 100 nM compound 2 h): 0.78
